Biological target: lactoperoxidase (LPO) (Bos taurus, UniProt P80025)
Test: LPO inhibition, peroxidase selectivity profiling
Type: biochemical

Going from `Cc1ccn2c(Nc3ccc4c(c3)OCO4)c(-c3ccc(O)cc3)nc2c1` [NE-2-8] to `COc1ccc(-c2nc3cc(C)ccn3c2Nc2ccc3c(c2)OCO3)cc1` [NE-2-7], the IC50 rises from 1050 nM to 2250 nM (2.1-fold).

With `Cc1ccc2nc(-c3cccnc3)c(Nc3ccc4c(c3)OCO4)n2c1` [NE-2-6] the IC50 was 890 nM.

Source: article PMC13509954 (Antioxidants, 2026)
